Assay: Inhibition of mouse IL5-mediated mouse Y16 cell proliferation after 48 hrs by WST1 assay

Compound	IC50 [µM]
CC(=O)OCc1c(C2CCCCC2)oc2ccc(NC(=O)c3ccccc3)cc2c1=O	6.1
CC(C)C(=O)OCc1c(C2CCCCC2)oc2ccc(NC(=O)c3ccccc3)cc2c1=O	19
CC(C)(C)C(=O)OCc1c(C2CCCCC2)oc2ccc(NC(=O)c3ccccc3)cc2c1=O	> 30
CC(=O)OCc1c(-c2ccccc2)oc2ccc(NC(=O)c3ccccc3)cc2c1=O	16
CC(=O)OCc1c(-c2ccc(F)cc2)oc2ccc(NC(=O)c3ccccc3)cc2c1=O	> 30
CC(=O)OCc1c(C2CCCCC2)oc2ccc(NC(=O)C3CCCCC3)cc2c1=O	20
CC(=O)OCc1c(C2CCCCC2)oc2ccc(NCc3ccccc3)cc2c1=O	19.2
CC(=O)OCc1c(C2CCCCC2)oc2ccc(NC(=O)Nc3ccccc3)cc2c1=O	> 30
CC(=O)OCc1c(C2CCCCC2)oc2ccc(NS(=O)(=O)c3ccccc3)cc2c1=O	> 30
CC(=O)OCc1c(-c2ccccc2)oc2ccc(NC(=O)C3CCCCC3)cc2c1=O	18
CC(=O)OCc1c(-c2ccccc2)oc2ccc(NC(=O)c3cnccn3)cc2c1=O	> 30
O=C(Nc1ccc2oc(C3CCCCC3)c(CO)c(=O)c2c1)c1ccccc1	10
O=C(Nc1ccc2oc(-c3ccccc3)c(CO)c(=O)c2c1)c1ccccc1	22
O=C(Nc1ccc2oc(-c3ccc(F)cc3)c(CO)c(=O)c2c1)c1ccccc1	> 30
O=C(Nc1ccc2oc(C3CCCCC3)c(CO)c(=O)c2c1)C1CCCCC1	> 30
O=C(Nc1ccc2oc(-c3ccccc3)c(CO)c(=O)c2c1)C1CCCCC1	> 30
O=C(Nc1ccc2oc(-c3ccccc3)c(CO)c(=O)c2c1)c1cnccn1	> 30
